Data: patent publication US5399565A, “Pyrazolidinone CCK and gastrin antagonists and pharmaceutical formulations therof” (priority 1993, dated 1995)

Columns and labels:
brain CCK receptor = target: T1, brain CCK receptor (Mus musculus, UniProt P56481); test: CCK receptor binding, mouse brain membranes (125I-CCK-8 sulfate); conditions: for IC50: mouse brain membranes, read-out: Brain IC50; for inhibition at 10 µM / inhibition at 1 µM: read-out: Brain Percent Inhibition
T1 construct: from tissue; host or cells: forebrain membranes of male CF-1 mice
T1 sequence (P56481 1-453): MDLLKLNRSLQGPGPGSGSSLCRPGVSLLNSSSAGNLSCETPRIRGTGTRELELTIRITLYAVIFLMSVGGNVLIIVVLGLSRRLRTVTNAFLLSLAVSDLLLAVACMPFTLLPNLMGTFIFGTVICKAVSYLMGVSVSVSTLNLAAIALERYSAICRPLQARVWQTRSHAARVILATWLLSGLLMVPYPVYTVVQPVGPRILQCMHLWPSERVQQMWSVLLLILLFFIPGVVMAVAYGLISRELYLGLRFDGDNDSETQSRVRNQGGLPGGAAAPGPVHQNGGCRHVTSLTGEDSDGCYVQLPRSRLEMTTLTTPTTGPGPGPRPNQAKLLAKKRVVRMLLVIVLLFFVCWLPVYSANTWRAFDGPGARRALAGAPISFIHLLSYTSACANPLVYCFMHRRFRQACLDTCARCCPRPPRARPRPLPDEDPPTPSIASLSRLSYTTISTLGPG
Method: Brain CCK receptor binding was performed using mouse brain membranes according to the method of Chang and Lotti (Proc. Natl. Acad. Sci. 83: 4923-4926, 1986). Male CF-1 mice, 23-25 g were sacrificed by cervical dislocation, the forebrain removed and placed in ice cold 50 mM Tris buffer, pH 7.4. The tissue was homogenized in 100 volumes of the Tris buffer with a Brinkman Polytron or Tekmar Tissumizer and then centrifuged at 40,000 g for 10 min. Pellets were resuspended in Tris buffer, centrifuged as above and then resuspended in 100 volumes of assay buffer, pH 6.5 (20 mM N-2-hydroxyethyl-piperazine-N'-2-ethane sulfonic acid (HEPES), 1 mM ethylene glycol his (2-aminoethyl ether-N,N,N',N'-tetraacetic acid) (EGTA), 5 mM MgCl2, 130 mM NaCl, and 0.25 mg/ml bacitracin). The binding assay consisted of 50 μL of compound (or buffer for total binding), 50 μL of ^125 I-CCK-8 sulfate (20 pM) (Amersham IM- 159), 200 μL of assay buffer and 200 μL of homogenate (80-120 μg protein). The samples were incubated at room temperature (25°) for 2 hours, and they were then filtered through GF/B glass fiber filters (soaked in wash buffer for 2 hours before use) using a 48 well Brandel cell harvester designed for receptor binding. The filters were washed twice with 3 ml of 50 mM Tris buffer, pH 7.4, containing 0.01% BSA and then counted for radioactivity in plastic tubes with a Micromedic 10/600 automatic gamma counter.
Compounds were dissolved in dimethyl sulfoxide (DMSO) at a concentration of 10 mM and then further diluted with assay buffer. The concentration of DMSO in the incubation was 0.1% or less and had no effect on the assay at that level. IC-50 values of displacement curves were determined using 7 concentrations of compound and were calculated using the ALLFIT computer program of DeLean, Munson and Rodbard (Am. J. Physiol. 235: E97-E102, 1978). Non-specific binding was determined as the displacement of the radioligand by 100 nM CCK-8 sulfate.

[1] = target: T2, peripheral type CCK receptors in rat pancreas (Rattus norvegicus, UniProt P30551); test: Binding to peripheral type CCK receptors in rat pancreas (3H-L-364,718); conditions: for inhibition at 10 µM: read-out: Pancreas Percent Inhibition
T2 construct: Pancreas was obtained from male Sprague-Dawley rats; from tissue; host or cells: pancreas membranes of male Sprague-Dawley rats
T2 sequence (P30551 1-444): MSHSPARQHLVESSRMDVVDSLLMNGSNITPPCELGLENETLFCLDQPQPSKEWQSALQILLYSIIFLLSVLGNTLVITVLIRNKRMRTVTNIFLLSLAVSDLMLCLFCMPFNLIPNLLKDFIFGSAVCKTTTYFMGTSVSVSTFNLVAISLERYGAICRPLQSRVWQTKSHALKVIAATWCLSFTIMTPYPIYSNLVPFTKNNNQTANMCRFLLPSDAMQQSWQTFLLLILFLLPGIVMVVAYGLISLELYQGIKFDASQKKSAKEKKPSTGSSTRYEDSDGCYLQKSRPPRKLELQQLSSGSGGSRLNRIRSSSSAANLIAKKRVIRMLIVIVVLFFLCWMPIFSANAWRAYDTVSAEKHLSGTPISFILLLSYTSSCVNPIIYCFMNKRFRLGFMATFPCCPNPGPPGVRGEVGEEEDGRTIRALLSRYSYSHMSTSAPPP
Method: Binding to peripheral type CCK receptors in rat pancreas was done according to the method of Chang et al. (Mol. Pharmacol. 30: 212-217, 1986) using ^3 H-L364, 718. Pancreas was obtained from male Sprague-Dawley rats, 150-200 g, after decapitation, and dissected free from adipose and connective tissue. The tissue was homogenized in 30 volumes of 50 mM Tris buffer, pH 7.4 and centrifuged at 40,000 g for 10 min. The tissue pellet was washed by resuspension and centrifugation as described above. The final pellet was suspended in 500 volumes of assay buffer (50 mM Tris buffer, pH 7.4, 5 mM MgCl2, 0.14 mg/ml bacitracin, and 5 mM dithiothreitol) to give a protein concentration of 30-60 μg/200 μl . Reagent volumes for the assay were the same as those used for CCK binding to brain membranes. Tritium labeled L-364,718 (Dupont NEN, NET-971) was used as the ligand at a concentration of 0.4-0.6 nM. The samples were incubated 1 hour at room temperature and then filtered as described for the CCK-brain receptor. Scintillation cocktail was added to the filters which were counted for radioactivity using a Micromedic Taurus automatic liquid scintillation counter.
Compound samples were prepared and IC-50 values were determined as described for the CCK-brain experiments. Non-specific binding was that amount left bound to the filters after adding 100 nM L-364,718.

IC50 (brain CCK receptor) [nM]	inhibition at 10 µM [1] [%]	inhibition at 10 µM (brain CCK receptor) [%]	inhibition at 1 µM (brain CCK receptor) [%]	IC50 ([1]; rat pancreas) [nM]	SMILES
1150	53	–	–	–	O=C1NN(C(=O)Nc2cccc(Cl)c2Cl)[C@H](c2ccccc2)[C@H]1c1ccccc1 (relative stereo) [Example 54]
500	12	–	–	–	CCCCC1C(=O)NN(C(=O)Nc2ccc(Br)cc2)C1c1ccccc1 (stereo not shown) [Example 69]
–	59	95	–	–	O=C1NN(C(=O)Sc2ccc(Br)cc2)[C@@H](c2ccccc2)[C@@H]1c1ccccc1 (relative stereo) [Example 81]
1000	45	–	–	–	O=C1NN(C(=O)Nc2cc(C(F)(F)F)ccc2Cl)[C@H](c2ccccc2)[C@H]1c1ccccc1 (relative stereo) [Example 57]
–	40	60	–	–	O=C1NN(C(=O)c2ccc(Cl)c(Cl)c2)[C@H](c2ccccc2)[C@H]1c1ccccc1 (relative stereo) [Example 75]
750	38	–	–	–	O=C1NN(C(=O)Nc2cccc([N+](=O)[O-])c2)[C@H](c2ccccc2)[C@H]1c1ccccc1 (relative stereo) [Example 40]
–	19	78	–	–	O=C1NN(c2nc3ccc(Br)cc3s2)[C@@H](c2ccccc2)[C@@H]1c1ccccc1 (relative stereo) [Example 85]
230	60	–	–	–	CCCc1ccc(NC(=O)N2NC(=O)[C@@H](c3ccccc3)[C@@H]2c2ccccc2)cc1 (relative stereo) [Example 27]
–	69	–	42	–	O=C1NN(C(=O)Nc2ccc(-c3ccccc3)cc2)[C@@H](c2ccccc2)[C@@H]1c1ccccc1 (relative stereo) [Example 32]
1300	87	–	–	–	O=C1NN(C(=O)NCCCc2ccccc2)[C@@H](c2ccccc2)[C@@H]1c1ccccc1 (relative stereo) [Example 108]
490	39	–	–	–	COc1ccc(C2C(=O)NN(C(=O)Nc3ccc(Br)cc3)C2c2ccccc2)cc1 (stereo not shown) [Example 128]
3300	86	–	–	–	O=C1NN(C(=O)NCc2cccc(Cl)c2)[C@@H](c2ccccc2)[C@@H]1c1ccccc1 (relative stereo) [Example 99]
57	77	–	–	–	O=C1NN(C(=O)Nc2ccc(I)cc2)[C@@H](c2ccccc2)[C@@H]1c1ccccc1 (relative stereo) [Example 21]
1800	49	–	–	–	O=C1NN(C(=O)Cc2ccc(Cl)c(Cl)c2)[C@@H](c2ccccc2)[C@@H]1c1ccccc1 (relative stereo) [Example 78]
1200	64	–	–	–	O=C1NN(C(=O)Nc2ccc(Br)cc2)C(c2ccc([N+](=O)[O-])cc2)C1c1ccccc1 (stereo not shown) [Example 119]
4700	11	–	–	–	C[C@@H](NC(=O)N1NC(=O)C(c2ccccc2)C1c1ccccc1)c1ccccc1 (stereo partly shown) [Example 102]

IC50 (brain CCK receptor) [nM]	inhibition at 10 µM [1] [%]	inhibition at 10 µM (brain CCK receptor) [%]	inhibition at 1 µM (brain CCK receptor) [%]	IC50 ([1]; rat pancreas) [nM]	SMILES
–	33	74	–	–	O=C1NN(C(=O)NCc2ccccc2Cl)[C@@H](c2ccccc2)[C@@H]1c1ccccc1 (relative stereo) [Example 98]
490	43	–	–	–	O=C1NN(C(=O)NCCc2ccccc2)[C@@H](c2ccccc2)[C@@H]1c1ccccc1 (relative stereo) [Example 105]
–	13	42	–	–	O=C1NN(C(=O)NCc2ccccc2)[C@@H](c2ccccc2)[C@@H]1c1ccccc1 (relative stereo) [Example 96]
–	21	57	–	–	Cc1cccc(NC(=O)N2NC(=O)[C@H](c3ccccc3)[C@H]2c2ccccc2)c1 (relative stereo) [Example 41]
–	37	50	–	–	O=C1NN(C(=S)Nc2c(F)c(F)c(F)c(F)c2F)[C@H](c2ccccc2)[C@H]1c1ccccc1 (relative stereo) [Example 65]
600	47	–	–	–	O=C1NN(C(=O)Nc2ccc(Cl)cc2Cl)[C@H](c2ccccc2)[C@H]1c1ccccc1 (relative stereo) [Example 55]
93	22	–	–	–	O=C1NN(C(=O)Nc2ccc(Cl)cc2)[C@@H](c2ccccc2)[C@@H]1c1ccccc1 (relative stereo) [Example 18]
870	78	–	–	–	CC(NC(=O)N1NC(=O)[C@@H](c2ccccc2)[C@@H]1c1ccccc1)c1ccc(Br)cc1 (relative stereo) [Example 103]
440	55	–	–	–	CCCCc1ccc(NC(=O)N2NC(=O)[C@@H](c3ccccc3)[C@@H]2c2ccccc2)cc1 (relative stereo) [Example 28]
–	18	55	–	–	O=C1NN(C(=O)NC2CCCCC2)[C@@H](c2ccccc2)[C@@H]1c1ccccc1 (relative stereo) [Example 95]
5200	9	–	–	–	O=C1NN(C(=O)Oc2ccc([N+](=O)[O-])cc2)[C@@H](c2ccccc2)[C@@H]1c1ccccc1 (relative stereo) [Example 80]
900	47	–	–	–	C[C@@H](NC(=O)N1NC(=O)C(c2ccccc2)C1c1ccccc1)c1cccc2ccccc12 (stereo partly shown) [Example 104]
–	2	34	–	–	O=C(Nc1ccc(Cl)c(C(F)(F)F)c1)N1N[C@@H](c2ccccc2)[C@H](c2ccccc2)C1=O (relative stereo) [Example 8, 2-[(4-Chloro-3-trifluoromethylphenyl)amino-carbonyl]-4,5-diphenyl-3-pyrazolidinone]
–	25	–	18	–	COc1ccc(NC(=O)N2NC(=O)[C@H](c3ccccc3)[C@H]2c2ccccc2)cc1OC (relative stereo) [Example 51]
22	–	–	–	160	O=C1NN(C(=O)Nc2ccc(Br)c(C(F)(F)F)c2)[C@H](c2ccccc2)[C@H]1c1ccccc1 (relative stereo) [Example 45]
150	45	–	–	–	O=C1NN(C(=O)Nc2ccc([N+](=O)[O-])cc2)[C@@H](c2ccccc2)[C@@H]1c1ccccc1 (relative stereo) [Example 24]
